System: Amaranthus retroflexus
Test: greenhouse experiment, pre-emergence treatment, herbicidal activity
Type: in vivo
Conditions: application rate 1.0 kg/ha
Description: (§1) The seeds of the test plants were sown separately for each species. For the pre-emergence treatment, directly after sowing the active compounds, which had been suspended or emulsified in water, were applied by means of finely distributing nozzles. The containers were irrigated gently to promote germination and growth and subsequently covered with transparent plastic hoods until the plant had rooted. This cover caused uniform germination of the test plants, unless this was adversely affected by the active compounds. The application rate for a pre-emergence treatment was 0.5 or 1.0 kg of a.s. (active substance)/ha. Depending on the species, the plants were kept at from 10 to 25° C. or from 20 to 35° C. The test period extended over 2 to 4 weeks. During this time, the plants were tended, and their response to the individual treatments was evaluated. Evaluation was carried out using a scale from 0 to 100. 100 means no emergence of the plants, or complete destruction of at least the above-ground parts, and 0 means no damage, or normal course of growth. The plants used in the greenhouse experiments were of the following species: [table]

Row | Structure (SMILES) | effect on the harmful plant Amaranthus retroflexus, pre-emergence method
1 | CCOC(=O)/C(C#N)=C(\N)C(CC)CC [Example 2.1, Ethyl (2Z)-3-amino-2-cyano-4-ethyl-2-hexenoate] | very good

System: Digitaria sanguinalis
Test: as above
Type: in vivo
Conditions: application rate 1.0 kg/ha
Description: as §1

Row | Structure (SMILES) | effect on the harmful plant Digitaria sanguinalis, pre-emergence method
2 | CCCOC(=O)/C(C#N)=C(\N)C(CC)CC [Example 2.2, n-Propyl (2Z)-3-amino-2-cyano-4-ethyl-2-hexenoate] | very good

System: Setaria faberii
Test: as above
Type: in vivo
Conditions: application rate 1.0 kg/ha
Description: as §1

Row | Structure (SMILES) | effect on the harmful plant Setaria faberii, pre-emergence method
3 | CCC(CC)/C(N)=C(\C#N)C(=O)OCCOC [Example 2.22] | very good
4 | CCCOC(=O)/C(C#N)=C(\N)C(CC)CC [Example 2.2, n-Propyl (2Z)-3-amino-2-cyano-4-ethyl-2-hexenoate] | very good
5 | CCOC(=O)/C(C#N)=C(\N)C(CC)CC [Example 2.1, Ethyl (2Z)-3-amino-2-cyano-4-ethyl-2-hexenoate] | very good

System: Pharbitis purpurea
Test: greenhouse experiment, post-emergence treatment, herbicidal activity
Type: in vivo
Conditions: application rate 1.0 kg/ha
Description: (§2) The seeds of the test plants were sown separately for each species. For the post-emergence treatment, the test plants were first grown to a height of from 3 to 15 cm, depending on the plant habit, and only then treated with the active compounds which had been suspended or emulsified in water. The test plants were for this purpose either sown directly and grown in the same containers, or they were first grown separately as seedlings and transplanted into the test containers a few days prior to treatment. The application rate for the post-emergence treatment was 0.5 or 1.0 kg of a.s. (active substance)/ha. Depending on the species, the plants were kept at from 10 to 25° C. or from 20 to 35° C. The test period extended over 2 to 4 weeks. During this time, the plants were tended, and their response to the individual treatments was evaluated. Evaluation was carried out using a scale from 0 to 100. 100 means no emergence of the plants, or complete destruction of at least the above-ground parts, and 0 means no damage, or normal course of growth. The plants used in the greenhouse experiments were of the following species: [table]

Row | Structure (SMILES) | post-emergence activity against the undesirable plant Pharbitis purpurea
6 | CCC(CC)/C(N)=C(\C#N)C(=O)OCCOC [Example 2.22] | very good
7 | CCCOC(=O)/C(C#N)=C(\N)C(CC)CC [Example 2.2, n-Propyl (2Z)-3-amino-2-cyano-4-ethyl-2-hexenoate] | very good
8 | CCOC(=O)/C(C#N)=C(\N)C(CC)CC [Example 2.1, Ethyl (2Z)-3-amino-2-cyano-4-ethyl-2-hexenoate] | very good

System: Setaria faberii
Test: as above
Type: in vivo
Conditions: application rate 1.0 kg/ha
Description: as §2

Row | Structure (SMILES) | post-emergence activity against the undesirable plant Setaria faberii
9 | CCOC(=O)/C(C#N)=C(\N)C(CC)CC [Example 2.1, Ethyl (2Z)-3-amino-2-cyano-4-ethyl-2-hexenoate] | very good

System: not given
Test: not given
Conditions: not given

Row | Structure (SMILES) | melting point
10 | CCC(CC)/C(N)=C(\C#N)C(=O)OCCOC [Example 2.22] | 70 °C
11 | CCOC(=O)/C(C#N)=C(\N)C(C)(C)Cl [Example 2.9] | 56 °C
12 | CCC(CC)/C(N)=C(\C#N)C(=O)OC [Example 2.5] | 65 °C
13 | CCCOC(=O)/C(C#N)=C(\N)C(CC)CSC (stereo not shown) [Example 2.3, n-Propyl (2Z)-3-amino-2-cyano-4-[(methylsulfanyl)methyl]-2-hexenoate] | 78 °C
14 | CCOC(=O)/C(C#N)=C(\N)C(CC)CC [Example 2.1, Ethyl (2Z)-3-amino-2-cyano-4-ethyl-2-hexenoate] | 85 to 87 °C
15 | CCOC(=O)/C(C#N)=C(\N)C(C)(C)CC [Example 2.8] | 65 to 67 °C

The next lines start with the values.

Row | melting point | Structure (SMILES)
16 | 84 °C | CCCOC(=O)/C(C#N)=C(\N)C(CC)CC [Example 2.2, n-Propyl (2Z)-3-amino-2-cyano-4-ethyl-2-hexenoate]
17 | 70 °C | CCOCCOC(=O)/C(C#N)=C(\N)C(CC)CC [Example 2.23]
18 | 102 to 103 °C | CCOC(=O)/C(C#N)=C(\N)C(C)CC (stereo not shown) [Example 2.6]
19 | 46 °C | CCOC(=O)/C(C#N)=C(\N)C(C)(C)Br [Example 2.10]

— US20050054536A1, “Beta-amino-alpha-cyanoacrylates and their use as herbicides” (priority 2001, published 2005)
